From the NIST ThermoML archive (doi:10.1016/j.tca.2010.05.016)

Test: wn = mass fraction of the nth substance listed
Settings: 101 kPa, Liquid; for speed of sound: Vibrating Tube; for mass density: Vibrating tube method

O=C[C@H](O)[C@@H](O)[C@H](O)[C@H](O)CO [D-glucose] + O
Settings | mass density, 288.15 K [kg/m3] | mass density, 293.15 K [kg/m3] | mass density, 298.15 K [kg/m3] | mass density, 303.15 K [kg/m3] | mass density, 308.15 K [kg/m3] | speed of sound, 288.15 K [m/s] | speed of sound, 293.15 K [m/s] | speed of sound, 298.15 K [m/s] | speed of sound, 303.15 K [m/s] | speed of sound, 308.15 K [m/s]
w1 = 0.0206 | – | 1006.08 | 1004.86 | 1003.41 | 1001.75 | 1475.6 | – | – | 1517.3 | 1527
w1 = 0.0396 | 1014.53 | 1013.52 | 1012.25 | 1010.76 | – | 1482.2 | 1497.7 | 1511.3 | 1523 | 1533
w1 = 0.0591 | 1022.21 | 1021.13 | 1019.81 | 1018.27 | 1016.54 | 1490 | 1505.1 | 1518.4 | 1529.9 | 1539.5
